Starred links: 1 amine or outer side, 2 acyl side, 3 side chain; linkers in the order of their positions; H or OH if unused. Positions of bridges follow the written chain, without caps; N, C: chain ends. Residues, ends and D or L forms follow the SMILES beside them. Groups on a side chain read outwards from the residue. *: point of attachment. C20 diacid = O=C(O)CCCCCCCCCCCCCCCCCCC(=O)*; γGlu = O=C(O)[C@H](CCC(=O)[*:2])N[*:1]
Tests used:
[1] = Assay (III) ThT fibrillation assay for physical stability; format: physicochemical; settings: for ThT pH 4.0 lag time: pH 4.0, ThT fibrillation assay
How it was run: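 Freshly prepared, pH-adjusted formulations with 1 μM ThT incubated at 37 °C under 960 rpm orbital shaking (1 mm), fluorescence (ex 444, em 485 nm) read every 20 min. […] Peptide content before and after measured by reverse-phase HPLC against pramlintide standard.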

ad libitum fed rat = experiment: Assay (I) efficacy testing on appetite (food intake) using an ad libitum fed rat model; format: in vivo, Sprague Dawley (SD) rats
How it was run: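 Ad libitum fed Sprague Dawley rats, 200-250 g, singly housed on reversed light cycle, got one ip, po or sc dose of 0.01-3 mg/kg just before lights off; groups of 5-8 with vehicle control. Food intake recorded hourly for 7 h, then at 24 h and sometimes 48 h; Grubbs outliers excluded.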

Row | ThT pH 4.0 lag time (physical stability in fibrillogenesis assay) [1] | ThT pH 4.0 lag time [1] | Structure (SMILES) | Food intake reduction 0-24 h 3 nmol/kg (%) (ad libitum fed rat; 0-24 h) | Food intake reduction 24-48 h 3 nmol/kg (%) (ad libitum fed rat; 24-48 h) | Food intake reduction 0-24 h 30 nmol/kg (%) (ad libitum fed rat; 30 nmol/kg, 0-24 h) | Food intake reduction 24-48 h 30 nmol/kg (%) (ad libitum fed rat; 30 nmol/kg, 24-48 h)
1 | >45 h | >45 h | CC[C@H](C)[C@H](NC(=O)[C@@H]1CCCN1C(=O)CNC(=O)[C@H](Cc1ccccc1)NC(=O)[C@H](CC(N)=O)NC(=O)[C@H](CCC(N)=O)NC(=O)[C@H](CO)NC(=O)[C@H](CO)NC(=O)[C@H](Cc1c[nH]cn1)NC(=O)[C@H](Cc1c[nH]cn1)NC(=O)[C@H](CC(C)C)NC(=O)[C@H](Cc1ccccc1)NC(=O)[C@H](CCC(=O)O)NC(=O)[C@H](C)NC(=O)[C@H](CC(C)C)NC(=O)[C@H](CCCNC(=N)N)NC(=O)[C@H](CCC(N)=O)NC(=O)[C@@H](NC(=O)[C@H](C)NC(=O)[C@@H]1CSSC[C@H](NC(=O)[C@H](CCCCN)NC(=O)CC[C@H](NC(=O)CCCCCCCCCCCCCCCCCCC(=O)O)C(=O)O)C(=O)N[C@@H](CC(N)=O)C(=O)N[C@@H]([C@@H](C)O)C(=O)N[C@@H](C)C(=O)N[C@@H]([C@@H](C)O)C(=O)N1)[C@@H](C)O)C(=O)N[C@@H](CC(C)C)C(=O)N1CCC[C@H]1C(=O)N1CCC[C@H]1C(=O)N[C@H](C(=O)N[C@@H](CC(N)=O)C(=O)N[C@H](C(=O)NCC(=O)N[C@@H](CO)C(=O)N[C@@H](Cc1c[nH]cn1)C(=O)N[C@H](C(=O)N[C@@H](Cc1ccc(O)cc1)C(N)=O)[C@@H](C)O)C(C)C)[C@@H](C)O [Example 117, N-alpha-[(S)-4-Carboxy-4-(19-carboxynonadecanoylamino)butyryl]-[Glu14,His17,Gln21,His35)-pramlintide] ({C20 diacid-γGlu}-KCNTATCATQRLAEFLHHSSQNFGPILPPTNVGSHTY-NH2; disulfide 2-7) | 50% | 35% |  | 
2 |  | 25 h | CC[C@H](C)[C@H](NC(=O)[C@@H]1CCCN1C(=O)CNC(=O)[C@H](Cc1ccccc1)NC(=O)[C@H](CC(N)=O)NC(=O)[C@H](CC(N)=O)NC(=O)[C@H](CO)NC(=O)[C@H](CO)NC(=O)[C@H](Cc1c[nH]cn1)NC(=O)[C@H](Cc1c[nH]cn1)NC(=O)[C@H](CC(C)C)NC(=O)[C@H](Cc1ccccc1)NC(=O)[C@H](CCC(=O)O)NC(=O)[C@H](C)NC(=O)[C@H](CC(C)C)NC(=O)[C@H](CCCNC(=N)N)NC(=O)[C@H](CCC(N)=O)NC(=O)[C@@H](NC(=O)[C@H](C)NC(=O)[C@@H]1CSSC[C@H](NC(=O)[C@@H](N)CCCCNC(=O)CC[C@H](NC(=O)CCCCCCCCCCCCCCCCCCC(=O)O)C(=O)O)C(=O)N[C@@H](CC(N)=O)C(=O)N[C@@H]([C@@H](C)O)C(=O)N[C@@H](C)C(=O)N[C@@H]([C@@H](C)O)C(=O)N1)[C@@H](C)O)C(=O)N[C@@H](CC(C)C)C(=O)N1CCC[C@H]1C(=O)N1CCC[C@H]1C(=O)N[C@H](C(=O)N[C@@H](CC(N)=O)C(=O)N[C@H](C(=O)NCC(=O)N[C@@H](CO)C(=O)N[C@@H](Cc1c[nH]cn1)C(=O)N[C@H](C(=O)N[C@@H](Cc1ccc(O)cc1)C(N)=O)[C@@H](C)O)C(C)C)[C@@H](C)O [Example 87, N-epsilon1-[(S)-4-Carboxy-4-(19-carboxynonadecanoylamino)butyryl]-[Glu14,His17,His35]-pramlintide] (H-K([γGlu-C20 diacid])CNTATCATQRLAEFLHHSSNNFGPILPPTNVGSHTY-NH2; disulfide 2-7 (inferred); C-terminus assumed) | 66% | 47% |  | 
3 |  | >45 h | CC[C@H](C)[C@H](NC(=O)[C@@H]1CCCN1C(=O)CNC(=O)[C@H](Cc1ccccc1)NC(=O)[C@H](CC(N)=O)NC(=O)[C@H](CC(N)=O)NC(=O)[C@H](CO)NC(=O)[C@H](CO)NC(=O)[C@H](Cc1c[nH]cn1)NC(=O)[C@H](CCCNC(=N)N)NC(=O)[C@H](CC(C)C)NC(=O)[C@H](Cc1ccccc1)NC(=O)[C@H](CCC(=O)O)NC(=O)[C@H](C)NC(=O)[C@H](CC(C)C)NC(=O)[C@H](CCCNC(=N)N)NC(=O)[C@H](CCC(N)=O)NC(=O)[C@@H](NC(=O)[C@H](C)NC(=O)[C@@H]1CSSC[C@H](NC(=O)[C@H](Cc2c[nH]cn2)NC(=O)[C@H](Cc2c[nH]cn2)NC(=O)[C@H](Cc2c[nH]cn2)NC(=O)CC[C@H](NC(=O)CCCCCCCCCCCCCCCCCCC(=O)O)C(=O)O)C(=O)N[C@@H](CC(N)=O)C(=O)N[C@@H]([C@@H](C)O)C(=O)N[C@@H](C)C(=O)N[C@@H]([C@@H](C)O)C(=O)N1)[C@@H](C)O)C(=O)N[C@@H](CC(C)C)C(=O)N1CCC[C@H]1C(=O)N1CCC[C@H]1C(=O)N[C@H](C(=O)N[C@@H](CC(N)=O)C(=O)N[C@H](C(=O)NCC(=O)N[C@@H](CO)C(=O)N[C@@H](CC(N)=O)C(=O)N[C@H](C(=O)N[C@@H](Cc1ccc(O)cc1)C(N)=O)[C@@H](C)O)C(C)C)[C@@H](C)O [Example 12, N-alpha-[(S)-4-Carboxy-4-(19-carboxynonadecanoylamino)butyryl]-His-His-[His1,Glu14,Arg17]-pramlintide] ({C20 diacid-γGlu}-HHHCNTATCATQRLAEFLRHSSNNFGPILPPTNVGSNTY-NH2; disulfide 4-9 (inferred)) |  |  | 70% | 45%
4 | >45 h | >45 h | CC[C@H](C)[C@H](NC(=O)[C@@H]1CCCN1C(=O)CNC(=O)[C@H](Cc1ccccc1)NC(=O)[C@H](CC(N)=O)NC(=O)[C@H](CC(N)=O)NC(=O)[C@H](CO)NC(=O)[C@H](CO)NC(=O)[C@H](Cc1c[nH]cn1)NC(=O)[C@H](Cc1c[nH]cn1)NC(=O)[C@H](CC(C)C)NC(=O)[C@H](Cc1ccccc1)NC(=O)[C@H](CCC(=O)O)NC(=O)[C@H](C)NC(=O)[C@H](CC(C)C)NC(=O)[C@H](CCCNC(=N)N)NC(=O)[C@H](CCC(N)=O)NC(=O)[C@@H](NC(=O)[C@H](C)NC(=O)[C@@H]1CSSC[C@H](NC(=O)[C@H](CCCNC(=N)N)NC(=O)CNC(=O)CC[C@H](NC(=O)CCCCCCCCCCCCCCCCCCC(=O)O)C(=O)O)C(=O)N[C@@H](CC(N)=O)C(=O)N[C@@H]([C@@H](C)O)C(=O)N[C@@H](C)C(=O)N[C@@H]([C@@H](C)O)C(=O)N1)[C@@H](C)O)C(=O)N[C@@H](CC(C)C)C(=O)N1CCC[C@H]1C(=O)N1CCC[C@H]1C(=O)N[C@H](C(=O)N[C@@H](CC(N)=O)C(=O)N[C@H](C(=O)NCC(=O)N[C@@H](CO)C(=O)N[C@@H](CC(N)=O)C(=O)N[C@H](C(=O)N1CCC[C@H]1C(N)=O)[C@@H](C)O)C(C)C)[C@@H](C)O [Example 101, N-alpha-[(S)-4-Carboxy-4-(19-carboxynonadecanoylamino)butyryl]-Gly-[Arg1,Glu14,His17,Pro37]-pramlintide] ({C20 diacid-γGlu}-GRCNTATCATQRLAEFLHHSSNNFGPILPPTNVGSNTP-NH2; disulfide 3-8) | 70% | 90% |  | 
5 | >45 h | >45 h | CC[C@H](C)[C@H](NC(=O)[C@@H]1CCCN1C(=O)CNC(=O)[C@H](Cc1ccccc1)NC(=O)[C@H](CC(N)=O)NC(=O)[C@H](CC(N)=O)NC(=O)[C@H](CO)NC(=O)[C@H](CO)NC(=O)[C@H](Cc1c[nH]cn1)NC(=O)[C@H](Cc1c[nH]cn1)NC(=O)[C@H](CC(C)C)NC(=O)[C@H](Cc1ccccc1)NC(=O)[C@H](CCC(=O)O)NC(=O)[C@H](C)NC(=O)[C@H](CC(C)C)NC(=O)[C@H](CCCNC(=N)N)NC(=O)[C@H](CCC(N)=O)NC(=O)[C@@H](NC(=O)[C@H](C)NC(=O)[C@@H]1CSSC[C@H](NC(=O)[C@H](CCCNC(=N)N)NC(=O)CC[C@H](NC(=O)CCCCCCCCCCCCCCCCCCC(=O)O)C(=O)O)C(=O)N[C@@H](CC(N)=O)C(=O)N[C@@H]([C@@H](C)O)C(=O)N[C@@H](C)C(=O)N[C@@H]([C@@H](C)O)C(=O)N1)[C@@H](C)O)C(=O)N[C@@H](CC(C)C)C(=O)N1CCC[C@H]1C(=O)N1CCC[C@H]1C(=O)N[C@H](C(=O)N[C@@H](CC(N)=O)C(=O)N[C@H](C(=O)NCC(=O)N[C@@H](CO)C(=O)N[C@@H](CC(N)=O)C(=O)N[C@H](C(=O)N1CCC[C@H]1C(N)=O)[C@@H](C)O)C(C)C)[C@@H](C)O [Example 96, N-alpha-[(S)-4-Carboxy-4-(19-carboxynonadecanoylamino)butyryl]-[Arg1,Glu14,His17,Pro37]-pramlintide] ({C20 diacid-γGlu}-RCNTATCATQRLAEFLHHSSNNFGPILPPTNVGSNTP-NH2; disulfide 2-7) | 69% | 89% |  | 
6 |  | >45 h | CC[C@H](C)[C@H](NC(=O)[C@@H]1CCCN1C(=O)CNC(=O)[C@H](Cc1ccccc1)NC(=O)[C@H](CO)NC(=O)[C@H](CO)NC(=O)[C@H](CO)NC(=O)[C@H](CO)NC(=O)[C@H](CCCNC(=N)N)NC(=O)[C@H](Cc1c[nH]cn1)NC(=O)[C@H](CC(C)C)NC(=O)[C@H](Cc1ccccc1)NC(=O)[C@H](CCC(=O)O)NC(=O)[C@H](C)NC(=O)[C@H](CC(C)C)NC(=O)[C@H](CCCNC(=N)N)NC(=O)[C@H](CCC(N)=O)NC(=O)[C@@H](NC(=O)[C@H](C)NC(=O)[C@@H]1CSSC[C@H](NC(=O)[C@H](Cc2c[nH]cn2)NC(=O)CC[C@H](NC(=O)CCCCCCCCCCCCCCCCCCC(=O)O)C(=O)O)C(=O)N[C@@H](CC(N)=O)C(=O)N[C@@H]([C@@H](C)O)C(=O)N[C@@H](C)C(=O)N[C@@H]([C@@H](C)O)C(=O)N1)[C@@H](C)O)C(=O)N[C@@H](CC(C)C)C(=O)N1CCC[C@H]1C(=O)N1CCC[C@H]1C(=O)N[C@H](C(=O)N[C@@H](CC(=O)O)C(=O)N[C@H](C(=O)NCC(=O)N[C@@H](CO)C(=O)N[C@@H](CC(=O)O)C(=O)N[C@H](C(=O)N[C@@H](Cc1ccc(O)cc1)C(N)=O)[C@@H](C)O)C(C)C)[C@@H](C)O [Example 9, N-alpha-[(S)-4-Carboxy-4-(19-carboxynonadecanoylamino)butyryl]-[His1,Glu14,His17,Arg18,Ser21,Ser22,Asp31,Asp35]-pramlintide] ({C20 diacid-γGlu}-HCNTATCATQRLAEFLHRSSSSFGPILPPTDVGSDTY-NH2; disulfide 2-7) | 39% | 32% |  | 

From patent US8741836B2, “Polypeptides” (Novo Nordisk A/S, priority 2011, dated 2014)
